Patent US9521847B2, “Synergistic weed control from applications of pyridine carboxylic acid herbicides and synthetic auxin herbicides and/or auxin transport inhibitors” (Dow AgroSciences LLC, priority 2014, dated 2016)
Where two headings read alike, the source gives them in different places.

Legend:
maize (ZEAMX) = settings: in vivo
[1] = test system: wild pansy (Viola tricolor, VIOTR); assay: Greenhouse postemergence trial, % visual injury
[2] = test system: Russian thistle (Salsola iberica, SASKR); assay: Greenhouse postemergence trial, % visual injury; assay type: in vivo
[3] = test system: common lambsquarters (CHEAL, Chenopodium album L.); assay: Greenhouse postemergence trial, % visual injury; assay type: in vivo; settings: Chenopodium album, post-emergence; 140 g ae/ha alone; 20-22 d; read-out: % visual injury Obs
[4] = test system: winter rape (BRSNW, Brassica napus); assay: Greenhouse postemergence trial, % visual injury; assay type: in vivo
[5] = test system: wild buckwheat (Polygonum convolvulus, POLCO); assay: Greenhouse postemergence trial, % visual injury; assay type: in vivo
[6] = test system: pigweed (AMARE, Amaranthus retroflexus); assay: Greenhouse postemergence trial, % visual injury; assay type: in vivo; settings: for % visual injury, Obs: AMARE
[7] = test system: sunflower (Helianthus annus, HELAN); assay: Greenhouse postemergence trial, % visual injury; assay type: in vivo; settings: 140 g ae/ha alone; 20-22 d
[8] = test system: nutsedge (Cyperus esculentus, CYPES); assay: Greenhouse postemergence trial, % visual injury; assay type: in vivo
common rice (ORYSA) = settings: in vivo
spring barley (HORVS) = settings: in vivo
[9] = test system: Canadian thistle (CIRAR, Cirsium arvense); assay: Greenhouse postemergence trial, % visual injury; settings: Cirsium arvense, post-emergence;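 also: plants sprayed at second to third true leaf stage, injury scored visually 20-22 d later against solvent-blank sprayed controls, 0 meaning no injury and 100 complete kill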
[10] = test system: velvetleaf (Abutilon theophrasti, ABUTH); assay: Greenhouse postemergence trial, % visual injury; assay type: in vivo; settings: 140 g ae/ha alone; 20-22 d
[11] = test system: poinsettia (Euphorbia heterophylla, EPHHL); assay: Greenhouse postemergence trial, % visual injury; settings: for pest or weed control at 140 g/ha: Euphorbia heterophylla, post-emergence
[12] = test system: ivyleaf morningglory (Ipomoea hederacea, IPOHE); assay: Greenhouse postemergence trial, % visual injury; settings: Ipomoea, post-emergence, read-out: % visual injury, Obs, IPOHE, 140 g ae/ha
[13] = test system: wild mustard (Sinapis arvensis, SINAR); assay: Greenhouse postemergence trial, % visual injury; assay type: in vivo
[14] = test system: kochia (KCHSC, Kochia scoparia); assay: Greenhouse postemergence trial, % visual injury; assay type: in vivo
Experimental: Following the protocol in Example 1, compound 1 and compound 2 were combined with 2,4 D EHE (EC) and applied to kochia (KCHSC, Kochia scoparia) and the phytotoxicity of the herbicidal compositions was measured.
Following the protocol in Example 1, compound 1 (EC) and Compound 2 (SC) were combined with diflufenzopyr and applied to kochia (Kochia scoparia, KCHSC) and the phytotoxicity of the herbicidal composition was measured.

[15] = test system: spring rape (Brassica napus, BRSNN); assay: Greenhouse postemergence trial, % visual injury; settings: Brassica napus, post-emergence
[16] = test system: common chickweed (Stellaria media, STEME); assay: Greenhouse postemergence trial, % visual injury; assay type: in vivo
[17] = test system: kochia (KCHSC, Kochia scoparia); assay: Patio postemergence trial, % visual injury; assay type: in vivo; settings: 280 g ae/ha alone, 20-22 d
Experimental: (§1) The plants were grown for 7-36 days (d) on a fenced, open-air patio. Nutrients and water were added on a regular basis.
(§2) Temperatures and photoperiods were dependent on the natural weather conditions during the trials. Weather conditions during trials were conducive for plant growth and development.

[18] = test system: pigweed (AMARE, Amaranthus retroflexus); assay: Patio postemergence trial, % visual injury; assay type: in vivo; settings: 280 g ae/ha alone, 20-22 d
Experimental: as §1, §2

[19] = test system: grain sorghum (Sorghum vulgare, SORVU); assay: Greenhouse postemergence trial, % visual injury; assay type: in vivo
[20] = Hordeum vulgare (spring barley)
[21] = read-out: % visual injury (Obs)

CCCCC(CC)COC(=O)COc1ccc(Cl)cc1Cl (stereo not shown) [2,4-D EHE, 2-ethylhexyl (2,4-dichlorophenoxy)acetate, reference compound]
% visual injury Obs (maize (ZEAMX); Zea mays (maize)): 0%
% visual injury (Obs) (maize (ZEAMX); maize (Zea mays)): 0%
% visual injury, Obs (maize (ZEAMX); maize (Zea mays)): 0%
% visual injury (Obs) ([1]; 2,4-D EHE 140 g ae/ha): 35%
% visual injury (Obs) ([1]; 2,4-D EHE 400 g ae/ha): 65%
pest or weed control at 140 g/ha ([1]; Viola tricolor, post-emergence, read-out: % visual injury Obs): 35%
% visual injury (Obs) ([2]; 2,4-D EHE 400 g ae/ha): 70%
% visual injury, Obs ([2]; SASKR, 400 g ae/ha): 70%
pest or weed control at 140 g/ha [3]: 73%
% visual injury (Obs) ([4]; 2,4-D EHE 400 g ae/ha): 93%
% visual injury Obs ([4]; 280 g ae/ha alone, 20-22 d): 85%
% visual injury, Obs ([4]; BRSNW, 400 g ae/ha): 93%
% visual injury (Obs) ([5]; 2,4-D EHE 400 g ae/ha): 80%
% visual injury (Obs) ([5]; 2,4-D EHE 420 g ae/ha): 60%
% visual injury Obs ([5]; 140 g ae/ha alone, 20-22 d): 55%
% visual injury, Obs ([6]; 140 g ae/ha): 75%
% visual injury, Obs ([6]; 400 g ae/ha): 80%
pest or weed control at 140 g/ha ([6]; Amaranthus retroflexus, post-emergence, 140 g ae/ha alone, 20-22 d, read-out: % visual injury Obs): 95%
pest or weed control at 280 g/ha ([6]; Amaranthus retroflexus, post-emergence, 280 g ae/ha alone, 20-22 d, read-out: % visual injury Obs): 30%
% visual injury Obs [7]: 75%
% visual injury (Obs) ([8]; 2,4-D EHE 140 g ae/ha): 0%
% visual injury, Obs ([8]; CYPES, 140 g ae/ha): 10%
pest or weed control at 140 g/ha ([8]; Cyperus, post-emergence, 140 g ae/ha alone, 20-22 d, read-out: % visual injury Obs): 0%
% visual injury (Obs) (common rice (ORYSA)): 0%
% visual injury, Obs (common rice (ORYSA)): 10%
% visual injury (Obs) (spring barley (HORVS); [20]): 0%
% visual injury Obs (spring barley (HORVS); [20]): 0%
% visual injury (Obs) (spring barley (HORVS); spring barley (Hordeum vulgare)): 10%
pest or weed control at 140 g/ha [9, 21]: 50%
pest or weed control at 400 g/ha [9, 21]: 70%
pest or weed control at 140 g/ha ([9]; read-out: % visual injury Obs): 50%
pest or weed control at 280 g/ha ([9]; read-out: % visual injury Obs): 73%
% visual injury Obs [10]: 55%
% visual injury (Obs) ([11]; 2,4-D EHE 400 g ae/ha): 60%
pest or weed control at 140 g/ha ([11]; read-out: % visual injury Obs, 140 g ae/ha alone, 20-22 d): 35%
pest or weed control at 140 g/ha ([11]; read-out: % visual injury, Obs, EPHHL, 140 g ae/ha): 5%
pest or weed control at 140 g/ha [12]: 93%
% visual injury (Obs) ([13]; 2,4-D EHE 400 g ae/ha): 97%
% visual injury, Obs ([13]; SINAR, 400 g ae/ha): 97%
% visual injury (Obs) ([14]; 2,4-D EHE 400 g ae/ha): 10%
% visual injury Obs ([14]; 280 g ae/ha alone, 20-22 d): 10%
pest or weed control at 400 g/ha ([14]; Bassia scoparia, post-emergence, KCHSC, 400 g ae/ha, read-out: % visual injury, Obs): 50%
plant injury at 140 g/ha [15, 21]: 60%
plant injury at 400 g/ha [15, 21]: 75%
plant injury at 140 g/ha ([15]; read-out: % visual injury Obs): 60%
plant injury at 140 g/ha ([15]; read-out: % visual injury, Obs): 65%
% visual injury (Obs) ([16]; 2,4-D EHE 400 g ae/ha): 10%
% visual injury Obs ([16]; 140 g ae/ha alone, 20-22 d): 63%
% visual injury Obs [17]: 10%
% visual injury Obs [18]: 50%
% visual injury (Obs) ([19]; 2,4-D EHE 140 g ae/ha): 0%
% visual injury Obs ([19]; 140 g ae/ha alone, 20-22 d): 0%
